Assay results from article PMC11709109, “Identification of AS1842856 as a novel small‐molecule GSK3α/β inhibitor against Tauopathy by accelerating GSK3α/β exocytosis” (Aging Cell, 2024).

What was measured:
GSK3β = biological target: T1, GSK3β (Homo sapiens, UniProt P49841); experiment: bio-layer interferometry (Octet K2, Ni-NTA); supported by CETSA in N2a lysate; format: binding
T1 construct: gene GSK3B; recombinant, His tag (Sino Biological 10044-H07B)

GSK3α = biological target: T2, GSK3α (Homo sapiens, UniProt P49840); experiment: as above; format: binding
T2 construct: gene GSK3A; recombinant, His tag (CLOUD-CLONE RPA360Hu01)
T2 sequence (P49840 2-483): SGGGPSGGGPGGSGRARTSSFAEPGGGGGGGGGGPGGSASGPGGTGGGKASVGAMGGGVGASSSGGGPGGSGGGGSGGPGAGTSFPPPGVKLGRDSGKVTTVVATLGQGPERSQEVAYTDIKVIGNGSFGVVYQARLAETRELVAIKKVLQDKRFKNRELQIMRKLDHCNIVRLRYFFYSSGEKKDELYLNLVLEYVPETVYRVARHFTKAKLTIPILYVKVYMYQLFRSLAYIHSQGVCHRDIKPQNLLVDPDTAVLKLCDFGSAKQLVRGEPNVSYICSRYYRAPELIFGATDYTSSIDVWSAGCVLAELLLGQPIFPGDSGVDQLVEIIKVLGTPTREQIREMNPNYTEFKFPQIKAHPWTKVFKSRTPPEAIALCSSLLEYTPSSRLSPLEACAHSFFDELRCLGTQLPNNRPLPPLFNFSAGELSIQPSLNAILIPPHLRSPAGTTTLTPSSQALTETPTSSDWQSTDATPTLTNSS

Q: Which Kd (GSK3β) does the source give for `CCn1cc(C(=O)O)c(=O)c2c(N)c(F)c(NC3CCCCC3)cc21` [AS, AS1842856] here?
A: 40.9 µM

Q: What about the Kd (GSK3α) of the same compound?
A: 15.8 µM
